Legend:
SGLT-2 = target: T1, SGLT-2 (Homo sapiens, UniProt P31639); test: [14C]-AMG absorption in stable SGLT2 expressing Flp-in CHO cells (SGLT-2 activity screening assay); format: cell-based; conditions: 14C-AMG uptake, 37° C. 1 h, 1% DMSO
T1 sequence (P31639 1-672): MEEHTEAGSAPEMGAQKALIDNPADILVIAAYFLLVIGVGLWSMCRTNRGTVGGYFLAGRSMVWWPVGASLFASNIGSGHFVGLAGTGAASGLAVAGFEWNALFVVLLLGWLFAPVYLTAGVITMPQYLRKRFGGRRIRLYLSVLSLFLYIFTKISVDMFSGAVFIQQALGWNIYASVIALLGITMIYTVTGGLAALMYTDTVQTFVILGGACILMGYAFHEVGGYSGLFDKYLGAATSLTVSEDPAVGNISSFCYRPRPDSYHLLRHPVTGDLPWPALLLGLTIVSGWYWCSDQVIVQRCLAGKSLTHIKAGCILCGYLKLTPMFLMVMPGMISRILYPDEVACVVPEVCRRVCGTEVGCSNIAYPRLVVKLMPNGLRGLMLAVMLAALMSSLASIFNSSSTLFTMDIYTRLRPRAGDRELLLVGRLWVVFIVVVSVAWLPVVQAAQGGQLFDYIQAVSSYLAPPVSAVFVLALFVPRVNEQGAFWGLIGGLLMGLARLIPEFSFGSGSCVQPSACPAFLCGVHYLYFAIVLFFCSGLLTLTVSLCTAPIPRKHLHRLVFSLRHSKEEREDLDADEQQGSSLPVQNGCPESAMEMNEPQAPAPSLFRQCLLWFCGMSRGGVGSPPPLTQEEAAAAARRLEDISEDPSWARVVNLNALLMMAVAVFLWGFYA
From the text: (§1) Example 1: [^14C]-AMG Absorption in Stable SGLT1 and SGLT2 Expressing Flp-in CHO Cells (SGLT-1 and SGLT-2 Activity Screening Assay)
(§2) SGLT-1 and SGLT-2 cDNA clones were purchased from OriGene. After sequencing verification, the expression vectors were constructed based on pcDNA5/FRT using conventional molecular biology method. The expression vector was transfected into Flp-in CHO cells using Lipofectamin 2000. The transfected cells were subject hygromycin selection. The single clones of cells were selected by serial dilutions 4-5 weeks after transfection. The expression of SGLT-1 ? SGLT-2 were confirmed by RT-PCR and functional assay and cell line with strong signal was selected for subsequent study.
(§3) Culture of stable SGLT-1 and SGLT-2 expressing Flp-in CHO cell line: the culture media contain F12 medium (Invitrogen), 500 μg/ml hygromycin (Calbiochem) and 10% FBS (Invitrogen). Upon 80% confluency, the cells in the T75 flask were washed three times with PBS (Invitrogen), and 5 mL of Trpsin-EDTA solution (Invitrogen) was then added. The flask was gently rotated so that all the cells were submerged in the digestion solution. After the cells detach, 10 mL of culture medium was added and single cell suspension was prepared by pipetting up and down. The cell concentration was adjusted to 3×10^5/mL, 100 μL/well was added onto clear bottom 96-well plate (Corning).
(§4) The cells were ready for absorption assay once they attached after overnight culture. 12 h after cell plating, the cells were washed once with 150 μL/well absorption solution KRH-NMG (120 mM NMG, 4.7 mM KCl, 1.2 mM MgCl2, 2.2 mM CaCl2, 10 mM HEPES, pH 7.4 1 mM Tris). The solution was then removed from the well. 2.5 μCi/mL ^14C labeled AMG (PerkinElmer) Buffer KRH-Na+ (120 mM NaCl, 4.7 mM KCl, 1.2 mM MgCl2, 2.2 mM CaCl2, 10 mM HEPES, pH 7.4 1 mM Tris) was added at […] after washing with Buffer KRH-Na+ and KRH-NMG. The corresponding compound I was immediately added at 5 μL/well, ensuring the concentration of Dimethyl Sulfoxide was 1% (v/v). The plate was subsequently incubated at 37° C. for 1 h, after which 150 μL of ice cold wash buffer (120 mM NaCl, 4.7 mM KCl, 1.2 mM MgCl2, 2.2 mM CaCl2, 10 mM HEPES, 0.5 mM phlorizin, pH 7.4 1 mM Tris) was immediately added to terminate the reaction. Each well was washed three times with wash buffer and finally the solution was removed. Caution was taken to avoid cell detachment during the procedure. 20 μL/well of Lysis Buffer (0.1 mM NaOH) was added, the plate was vortexed at 900 rpm for 5 min. 80 μL/well of scintillation solution Microsint40 was added, and vortexed at 900 rpm for 5 min. The radioactivity was assayed using MicroBeta Trilux (PerkinElmer). The data was analyzed and IC50 of the compounds was calculated using XL-fit software.

SGLT-1 = target: T2, SGLT-1 (Homo sapiens, UniProt P13866); test: [14C]-AMG absorption in stable SGLT1 expressing Flp-in CHO cells (SGLT-1 activity screening assay); format: cell-based; conditions: 14C-AMG uptake, 37° C. 1 h, 1% DMSO
T2 sequence (P13866 1-664): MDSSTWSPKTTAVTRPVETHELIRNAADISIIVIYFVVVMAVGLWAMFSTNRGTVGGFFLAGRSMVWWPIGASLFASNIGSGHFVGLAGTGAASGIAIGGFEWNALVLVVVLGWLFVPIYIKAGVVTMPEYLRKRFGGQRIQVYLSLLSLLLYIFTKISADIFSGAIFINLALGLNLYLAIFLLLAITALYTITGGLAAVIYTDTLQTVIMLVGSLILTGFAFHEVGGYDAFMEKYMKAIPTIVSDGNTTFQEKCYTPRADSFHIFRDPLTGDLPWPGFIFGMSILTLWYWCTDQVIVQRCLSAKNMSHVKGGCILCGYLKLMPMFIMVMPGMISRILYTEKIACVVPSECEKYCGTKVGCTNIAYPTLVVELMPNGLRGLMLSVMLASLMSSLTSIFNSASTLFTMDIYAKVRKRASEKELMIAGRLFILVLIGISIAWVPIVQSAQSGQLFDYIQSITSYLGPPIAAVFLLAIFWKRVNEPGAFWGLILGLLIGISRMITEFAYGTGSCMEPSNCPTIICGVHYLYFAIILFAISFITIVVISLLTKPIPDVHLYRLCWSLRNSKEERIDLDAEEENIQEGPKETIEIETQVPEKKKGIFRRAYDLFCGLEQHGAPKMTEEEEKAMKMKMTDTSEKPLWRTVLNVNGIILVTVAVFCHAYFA
From the text: as §1, §2, §3, §4

Work on OC[C@H]1O[C@@H](c2ccc(Cl)c(Cc3ccc(OCc4cc5cccc(F)c5o4)cc3)c2)[C@H](O)[C@@H](O)[C@@H]1O [Compound I-10, (2S,3R,4R,5S,6R)-2-(4-chloro-3-(4-((7-fluorobenzofuran-2-yl)methoxy)benzyl)phenyl)-6-(hydroxymethyl)tetrahydro-2H-pyran-3,4,5-triol] yielded an IC50 (SGLT-2) of 0.012 µM and an IC50 (SGLT-1) of 0.444 µM.
OC[C@H]1O[C@@H](c2ccc(Cl)c(Cc3ccc(OCc4cc5ccccc5o4)c(F)c3)c2)[C@H](O)[C@@H](O)[C@@H]1O [Compound I-11, (2S,3R,4R,5S,6R)-2-(3-(4-(benzofuran-2-ylmethoxy)-3-fluorobenzyl)-4-chlorophenyl)-6-(hydroxymethyl)tetrahydro-2H-pyran-3,4,5-triol] showed an IC50 (SGLT-2) of 0.023 µM and an IC50 (SGLT-1) of 2.54 µM.
In the case of OC[C@H]1O[C@@H](c2ccc(Cl)c(Cc3ccc(OCC4Cc5ccccc5O4)c(F)c3)c2)[C@H](O)[C@@H](O)[C@@H]1O (stereo partly drawn) [Compound I-12, (2S,3R,4R,5S,6R)-2-(4-chloro-3-(4-((2,3-dihydrobenzofuran-2-yl)methoxy)-3-fluorobenzyl)phenyl)-6-(hydroxymethyl)tetrahydro-2H-pyran-3,4,5-triol], the IC50 (SGLT-2) is reported as 0.011 µM and the IC50 (SGLT-1) is reported as 1.07 µM.
OC[C@H]1O[C@@H](c2ccc(F)c(Cc3ccc(OCC4Cc5ccccc5O4)cc3)c2)[C@H](O)[C@@H](O)[C@@H]1O (stereo partly drawn) [Compound I-21, (2S,3R,4R,5S,6R)-2-(3-(4-((2,3-dihydrobenzofuran-2-yl)methoxy)benzyl)-4-fluorophenyl)-6-(hydroxymethyl)tetrahydro-2H-pyran-3,4,5-triol] gave an IC50 (SGLT-2) of 0.013 µM and an IC50 (SGLT-1) of 4.3 µM.
For OC[C@H]1O[C@@H](c2ccc(Cl)c(Cc3ccc(OC[C@@H]4Cc5ccccc5O4)cc3)c2)[C@H](O)[C@@H](O)[C@@H]1O [Compound I-23, (2S,3R,4R,5S,6R)-2-(4-chloro-3-(4-(((S)-2,3-dihydrobenzofuran-2-yl)methoxy)benzyl)phenyl)-6-(hydroxymethyl)tetrahydro-2H-pyran-3,4,5-triol], the IC50 (SGLT-2) was 0.003 µM and the IC50 (SGLT-1) was 0.301 µM.
OC[C@H]1O[C@@H](c2ccc(Cl)c(Cc3ccc(OC[C@H]4Cc5ccccc5O4)cc3)c2)[C@H](O)[C@@H](O)[C@@H]1O [Compound I-24, (2S,3R,4R,5S,6R)-2-(4-chloro-3-(4-(((R)-2,3-dihydrobenzofuran-2-yl)methoxy)benzyl)phenyl)-6-(hydroxymethyl)tetrahydro-2H-pyran-3,4,5-triol] gave an IC50 (SGLT-2) of 0.0043 µM and an IC50 (SGLT-1) of 1.19 µM.
Cc1ccc([C@@H]2O[C@H](CO)[C@@H](O)[C@H](O)[C@H]2O)cc1Cc1ccc(OCC2Cc3ccccc3O2)cc1 (stereo partly drawn) [Compound I-25, (2S,3R,4R,5S,6R)-2-(3-(4-((2,3-dihydrobenzofuran-2-yl)methoxy)benzyl)-4-methylphenyl)-6-(hydroxymethyl)tetrahydro-2H-pyran-3,4,5-triol] was tested, and the IC50 (SGLT-2) was 0.0041 µM and the IC50 (SGLT-1) was 0.18 µM.
Cc1ccc([C@@H]2O[C@H](CO)[C@@H](O)[C@H](O)[C@H]2O)cc1Cc1ccc(OC[C@@H]2Cc3ccccc3O2)cc1 [Compound I-26, (2S,3R,4R,5S,6R)-2-(3-(4-(((S)-2,3-dihydrobenzofuran-2-yl)methoxy)benzyl)-4-methylphenyl)-6-(hydroxymethyl)tetrahydro-2H-pyran-3,4,5-triol] showed an IC50 (SGLT-2) of 0.0027 µM and an IC50 (SGLT-1) of 0.095 µM.
N#Cc1ccc([C@@H]2O[C@H](CO)[C@@H](O)[C@H](O)[C@H]2O)cc1Cc1ccc(OCC2Cc3ccccc3O2)cc1 (stereo partly drawn) [Compound I-28, 2-(4-((2,3-dihydrobenzofuran-2-yl)methoxy)benzyl)-4-((2S,3R,4R,5S,6R)-3,4,5-trihydroxy-6-(hydroxymethyl)tetrahydro-2H-pyran-2-yl)benzonitrile] showed an IC50 (SGLT-2) of over 2 µM and an IC50 (SGLT-1) of 41.4 µM.
With COc1ccc([C@@H]2O[C@H](CO)[C@@H](O)[C@H](O)[C@H]2O)cc1Cc1ccc(OCC2Cc3ccccc3O2)cc1 (stereo partly drawn) [Compound I-29, (2S,3R,4R,5S,6R)-2-(3-(4-((2,3-dihydrobenzofuran-2-yl)methoxy)benzyl)-4-methoxyphenyl)-6-(hydroxymethyl)tetrahydro-2H-pyran-3,4,5-triol] the IC50 (SGLT-2) was 0.059 µM and the IC50 (SGLT-1) was 0.22 µM.
Work on OC[C@H]1O[C@@H](c2cccc(Cc3ccc(OCC4Cc5ccccc5O4)cc3)c2)[C@H](O)[C@@H](O)[C@@H]1O (stereo partly drawn) [Compound I-30, (2S,3R,4R,5S,6R)-2-(3-(4-((2,3-dihydrobenzofuran-2-yl)methoxy)benzyl)phenyl)-6-(hydroxymethyl)tetrahydro-2H-pyran-3,4,5-triol] yielded an IC50 (SGLT-2) of 0.125 µM and an IC50 (SGLT-1) of 9.37 µM.
OC[C@H]1O[C@@H](c2ccc(Cl)c(Cc3ccc(OCC4Cc5c(F)cccc5O4)cc3)c2)[C@H](O)[C@@H](O)[C@@H]1O (stereo partly drawn) [Compound I-31, (2S,3R,4R,5S,6R)-2-(4-chloro-3-(4-((4-fluoro-2,3-dihydrobenzofuran-2-yl)methoxy)benzyl)phenyl)-6-(hydroxymethyl)tetrahydro-2H-pyran-3,4,5-triol] gave an IC50 (SGLT-2) of 0.0065 µM and an IC50 (SGLT-1) of 0.365 µM.
In the case of OC[C@H]1O[C@@H](c2ccc(Cl)c(Cc3ccc(OCC4Cc5cc(F)ccc5O4)cc3)c2)[C@H](O)[C@@H](O)[C@@H]1O (stereo partly drawn) [Compound I-32, (2S,3R,4R,5S,6R)-2-(4-chloro-3-(4-((5-fluoro-2,3-dihydrobenzofuran-2-yl)methoxy)benzyl)phenyl)-6-(hydroxymethyl)tetrahydro-2H-pyran-3,4,5-triol], the IC50 (SGLT-2) is reported as 0.0067 µM and the IC50 (SGLT-1) is reported as 0.472 µM.
With OC[C@H]1O[C@@H](c2ccc(Cl)c(Cc3ccc(OCC4Cc5ccc(F)cc5O4)cc3)c2)[C@H](O)[C@@H](O)[C@@H]1O (stereo partly drawn) [Compound I-33, (2S,3R,4R,5S,6R)-2-(4-chloro-3-(4-((6-fluoro-2,3-dihydrobenzofuran-2-yl)methoxy)benzyl)phenyl)-6-(hydroxymethyl)tetrahydro-2H-pyran-3,4,5-triol] the IC50 (SGLT-2) was 0.0062 µM and the IC50 (SGLT-1) was 0.599 µM.
Work on OC[C@H]1O[C@@H](c2ccc(Cl)c(Cc3ccc(OCC4Cc5cccc(F)c5O4)cc3)c2)[C@H](O)[C@@H](O)[C@@H]1O (stereo partly drawn) [Compound I-34, (2S,3R,4R,5S,6R)-2-(4-chloro-3-(4-((7-fluoro-2,3-dihydrobenzofuran-2-yl)methoxy)benzyl)phenyl)-6-(hydroxymethyl)tetrahydro-2H-pyran-3,4,5-triol] yielded an IC50 (SGLT-2) of 0.0045 µM and an IC50 (SGLT-1) of 0.141 µM.

From patent US9914724B2, “C-aryl glycosid derivatives, pharmaceutical composition, preparation process and uses thereof” (SHANGHAI DE NOVO PHARMATECH CO. LTD., priority 2014, dated 2018)
